Tests used:
Assay type in all cases: cell-based
MDA-MB-453 cells [1] = assay: Inhibition of proliferation of MDA-MB-453 cells by single agents (CCK-8 or CTG); details: co-incubation for 7-10 days; for inhibitory effect on the proliferation of MDA-MB-453 cells (in words): single agent
Method: Triple negative breast cancer MDA-MB-453 cells in logarithmic growth stage were inoculated into a 96-well plate at a concentration of 4×10^3 cells/well, and then incubated in an incubator at 37° C., 5% CO2, and saturated humidity for 24 h or 48 h. To the negative control well, was added RPMI 1640 cell medium containing 10% fetal bovine serum in the same volume as the drug. After cultured for 24 h or 48 h, to the 96-well plate, were added AR PROTACs compounds 162, 177, 230, 259, 279, 281, 282, 325, 357, 400, ARV-110, ARV-766 and AR inhibitor HC-1119, respectively. The concentrations of compounds 177, 230, 259, 279, 281, 282, 325, 357, 400, ARV-110, and ARV-766 are 0 μM, 0.002 μM, 0.005 μM, 0.014 μM, 0.041 μM, 0.123 μM, 0.370 μM, 1.111μM, 3.333 μM or 10 μM; while the concentrations of HC-1119 are 0 μM, 1.23 μM, 3.70 μM, 11.11 μM, 33.33 μM or 100 μM.
(§1) After addition of the drugs and co-incubation for 7-10 days, 10 μL of CCK-8 was added to each well, and then the plate was further cultured for 2 h. The absorbance value (OD) of each well was measured using a microplate reader at a wavelength of 450 nm. The survival rate was calculated using Prism software, the relative survival rate=(OD value of drug well/OD value of control well)×100%. Alternatively, 100 μL of medium was removed from each well, and then 50 μL of CTG was added. The plate was shaken in the dark for 2 min, allowed to stand for 10 min, and then measured using a microplate reader in Luminescence mode. Prism software was used to calculate the survival rate, the relative survival rate=(the RLU value of drug well/the RLU value of control well)×100%.

MDA-MB-453 cells [2] = assay: Proliferation of MDA-MB-453 cells, AR PROTAC in combination with PI3K inhibitor Idelalisib (Combination Index); details: molar ratio of compound to Idelalisib 1:270-1:3.333; 7-10 days; synergistic when CI<1
Method: Triple negative breast cancer MDA-MB-453 cells in logarithmic growth stage were inoculated into a 96-well plate at a concentration of 4×10^3 cells/well, and then incubated in an incubator at 37° C., 5% CO2, and saturated humidity for 24 h. To the negative control wells, were added RPMI 1640 cell culture medium containing 10% fetal bovine serum in the same volume as the drug. After cultured for 24 h, to the 96-well plate, were sequentially added AR PROTACs compounds 279, 281, 282, ARV-110, ARV-766 and PI3K inhibitor Idelalisib, respectively.
as §1, with “adding” for “addition of”, “co-incubating” for “co-incubation”

MDA-MB-453 cells [3] = assay: Proliferation of MDA-MB-453 cells, AR PROTAC in combination with chemotherapeutic drug Paclitaxel (Combination Index); details: molar ratio of compound to Paclitaxel 20:1-5000:1; 7 days; synergistic when CI<1
Method: Triple negative breast cancer MDA-MB-453 cells in logarithmic growth stage were inoculated into a 96-well plate at a concentration of 4×10^3 cells/well, and then incubated in an incubator at 37° C., 5% CO2, and saturated humidity for 24 h. To the negative control wells, were added RPMI 1640 cell culture medium containing 10% fetal bovine serum in the same volume as the drug. After cultured for 24 h, to the 96-well plate, were sequentially added AR PROTACs compounds 279, 281, 282, ARV-110 and chemotherapeutic drug Paclitaxel, respectively.
as §1, with “adding” for “addition of”, “co-incubating” for “co-incubation”, “7” for “7-10”

MDA-MB-453 cells [4] = assay: Proliferation of MDA-MB-453 cells, AR PROTAC in combination with PI3K inhibitor Duvelisib (Combination Index); details: molar ratio of compound to Duvelisib 1:30-1:1.111; 7-10 days; synergistic when CI<1
Method: Triple negative breast cancer MDA-MB-453 cells in logarithmic growth stage were inoculated into a 96-well plate at a concentration of 4×10^3 cells/well, and then incubated in an incubator at 37° C., 5% CO2, and saturated humidity for 24 h. To the negative control wells, were added RPMI 1640 cell culture medium containing 10% fetal bovine serum in the same volume as the drug. After cultured for 24 h, to the 96-well plate, were sequentially added AR PROTACs compounds 279, 281, 282, ARV-110 and PI3K inhibitor Duvelisib, respectively.
as §1, with “adding” for “addition of”, “co-incubating” for “co-incubation”

MDA-MB-453 cells [5] = assay: Proliferation of MDA-MB-453 cells, AR PROTAC in combination with PI3K inhibitor Alpelisib (Combination Index); details: molar ratio of compound to Alpelisib 1:27-9:1; 7 days; synergistic when CI<1
Method: Triple negative breast cancer MDA-MB-453 cells in logarithmic growth stage were inoculated into a 96-well plate at a concentration of 4×10^3 cells/well, and then incubated in an incubator at 37° C., 5% CO2, and saturated humidity for 24 h. To the negative control wells, were added RPMI 1640 cell culture medium containing 10% fetal bovine serum in the same volume as the drug. After cultured for 24 h, to the 96-well plate, were sequentially added AR PROTACs compounds 279, 281, 282, ARV-110, ARV-766 and PI3K inhibitor Alpelisib, respectively.
as §1, with “7” for “7-10”

| SMILES | IC50 (MDA-MB-453 cells [1]; Homo sapiens, MDA-MB-453, CCK-8 or CTG readout, read-out: IC50 values against MDA-MB-453 cells) [µM] | inhibitory effect on the proliferation of MDA-MB-453 cells (in words) (MDA-MB-453 cells [1]) | effect of drug combination with Idelalisib on inhibiting the proliferation of MDA-MB-453 cells (MDA-MB-453 cells [2]) | effect of drug combination with Paclitaxel on inhibiting the proliferation of MDA-MB-453 cells (MDA-MB-453 cells [3]) | effect of drug combination with Duvelisib on inhibiting the proliferation of MDA-MB-453 cells (MDA-MB-453 cells [4]) | effect of drug combination with Alpelisib on inhibiting the proliferation of MDA-MB-453 cells (MDA-MB-453 cells [5]) |
| --- | --- | --- | --- | --- | --- | --- |
| CC1(C)[C@H](Oc2ccc(C#N)c(Cl)c2)C(C)(C)[C@H]1N1Cc2nc(C#C[C@H]3C[C@H](N4CCN(c5cc6c(cc5F)C(=O)N(C5CCC(=O)NC5=O)C6=O)CC4)C3)ccc2C1=O (some centres unmarked) [Compound 357] | ≤ 2 | inhibit the proliferation of MDA-MB-453 cells to varying degrees | – | – | – | – |
| [2H]C([2H])([2H])NC(=O)c1ccc(N2C(=S)N(c3ccc(C#N)c(C(F)(F)F)c3)C(=O)C2(C)C)cc1F [HC-1119, reference compound] | – | weak inhibitory effect | – | – | – | – |
| N#Cc1ccc(O[C@H]2CC[C@H](NC(=O)c3ccc(N4CC5(CCN(CC6CCN(c7ccc8c(c7)C(=O)N(C7CCC(=O)NC7=O)C8=O)CC6)CC5)C4)nn3)CC2)cc1Cl (some centres unmarked) [Compound 282] | – | inhibit the proliferation of MDA-MB-453 cells to varying degrees | synergistic effect | synergistic effect | synergistic effect | synergistic effect |
| N#Cc1ccc(O[C@H]2CC[C@H](NC(=O)c3ccc(N4CC5CN(CC6CCN(c7cc8c(cc7F)C(=O)N(C7CCC(=O)NC7=O)C8=O)CC6)CC5C4)nn3)CC2)cc1Cl (some centres unmarked) [Compound 259] | – | inhibit the proliferation of MDA-MB-453 cells to varying degrees | – | – | – | – |
| COc1cc(O[C@H]2C(C)(C)[C@H](NC(=O)c3ccc(N4CCC(CN5CCN(c6ccc(C(=O)N[C@H]7CCC(=O)NC7=O)c(F)c6)CC5)CC4)cc3)C2(C)C)ccc1C#N [ARV-766, reference compound] | – | inhibit the proliferation of MDA-MB-453 cells to varying degrees | synergistic effect | – | – | synergistic effect |
| COc1cc(O[C@H]2C(C)(C)[C@H](N3Cc4nc(C#C[C@H]5CC[C@H](N6CCN(c7ccc8c(c7)C(=O)N(C7CCC(=O)NC7=O)C8=O)CC6)CC5)ccc4C3=O)C2(C)C)ccc1C#N (some centres unmarked) [Compound 400] | – | inhibit the proliferation of MDA-MB-453 cells to varying degrees | – | – | – | – |
| N#Cc1ccc(O[C@H]2CC[C@H](NC(=O)c3ccc(N4CCC(CN5CCC6(CC5)CN(c5ccc7c(c5)C(=O)N(C5CCC(=O)NC5=O)C7=O)C6)CC4)nn3)CC2)cc1Cl (some centres unmarked) [Compound 230] | – | inhibit the proliferation of MDA-MB-453 cells to varying degrees | – | – | – | – |
| N#Cc1ccc(O[C@H]2CC[C@H](NC(=O)c3ccc(N4CCC(CN5CCN(c6cc7c(cc6F)C(=O)N(C6CCC(=O)NC6=O)C7=O)CC5)CC4)nn3)CC2)cc1Cl (some centres unmarked) [ARV-110, reference compound] | – | inhibit the proliferation of MDA-MB-453 cells to varying degrees | synergistic effect | synergistic effect | synergistic effect | synergistic effect |
| N#Cc1ccc(O[C@H]2CC[C@H](NC(=O)c3cnc(N4C[C@@H]5[C@@H](CN6CCN(c7ccc8c(c7)C(=O)N(C7CCC(=O)NC7=O)C8=O)CC6)[C@@H]5C4)cn3)CC2)cc1Cl (some centres unmarked) [Compound 177] | – | inhibit the proliferation of MDA-MB-453 cells to varying degrees | – | – | – | – |
| N#Cc1ccc(O[C@H]2CC[C@H](NC(=O)c3ccc(N4CCC(N5CCC6(CC5)CN(c5ccc7c(c5)C(=O)N(C5CCC(=O)NC5=O)C7=O)C6)CC4)nn3)CC2)cc1Cl (some centres unmarked) [Compound 281] | – | inhibit the proliferation of MDA-MB-453 cells to varying degrees | synergistic effect | synergistic effect | synergistic effect | synergistic effect |
| CC1(C)[C@H](Oc2ccc(C#N)c(Cl)c2)C(C)(C)[C@H]1N1Cc2nc(C#C[C@H]3CC[C@H](N4CCN(c5ccc6c(c5)C(=O)N(C5CCC(=O)NC5=O)C6=O)CC4)CC3)ccc2C1=O (some centres unmarked) [Compound 325] | – | inhibit the proliferation of MDA-MB-453 cells to varying degrees | – | – | – | – |

From patent US20250082764A1, “DRUG FOR TREATING TRIPLE NEGATIVE BREAST CANCER” (HINOVA PHARMACEUTICALS INC., priority 2022, published 2025)
